# Tests used:
# HaCaT cell line = assay: Inhibition of keratinocyte proliferation (3H-thymidine uptake); type: cell-based, human; settings: HaCaT cells, 3H-thymidine incorporation after 6 days of culture, concentration leading to 50% of control values
# Human T-cells = assay: Inhibition of γ-interferon release in PHA-stimulated T-cells (ELISA); type: cell-based
# Human T-cell = assay: Inhibition of T-cell proliferation (3H-thymidine, PHA-stimulated); type: cell-based
# Procedure: Mononuclear cells were isolated from venous blood of healthy donors by centrifugation of buffy coat leucocytes atop Ficoll-Paque. The lymphocytes (70-80% T-cells) were suspended in RPMI 1640 medium supplemented with 10% FCS and adjusted to 10^6 cells/ml. […] of this cell suspension were seeded into flat-bottom microtiter wells and stimulated with […] of PHA. Immediately after seeding, the test compounds listed below in Table V were added to yield final concentrations of between 1x10^-11 M -1 x 10^-6 M. All tests were run in the quadruplicates.
# After 3 and 4 days, ^3H-thymidine (5 Ci/mmol) was added to wells at a concentration of […]. Cells were pulse-labeled for the last 6 hours of the growth period. Cells were then harvested on to a 96 well filter plate using a cell harvester. After drying at […] under vacuum for 20-30 minutes, 20 µl of scintillor were added and the radioactivity bound to the filters was counted. Values are expressed as percent controls (samples without test compounds). The concentration leading to 50% of control values is determined graphically and given as IC50 (inhibiting concentration) in Table V. TABLE V
# [1] = Calcium tolerance test in mice (highest tolerated dose, body weight); type: in vivo; settings: daily subcutaneous administration for 4 consecutive days, dose resulting in zero weight gain during 5 day treatment period
# Excerpt: Profound changes in calcium homeostasis strongly affect the weight development of mice.
# Mice (25-30 g body weight) received daily subcutaneous administrations of the compound for 4 consecutive days. Body weight was registered just before and at the end of a […] treatment period. The "highest tolerated dose" (HTD) is the dose which results in zero weight gain during this treatment period.
# Sebaceous cells = assay: Inhibition of sebaceous cell proliferation (cell count); settings: adult human sebaceous cells in vitro, amount necessary to inhibit proliferation by 50% vs vehicle control
# HL-60 cells = assay: Induction of HL-60 cell differentiation (NBT reduction); type: cell-based; settings: 3 days, concentration leading to 50% of maximal differentiation achieved with 100-1000 nM calcitriol, read-out: ED50 (the source's name)
# [2] = human lymphocytes (70-80% T-cells) stimulated with PHA, IFN-g by ELISA on days 3 and 4
# [3] = human lymphocytes (70-80% T-cells) stimulated with PHA, 3H-thymidine after 3 and 4 days
SMILES,IC50 (HaCaT cell line; Homo sapiens) [nM],"IC50 (Human T-cells; Homo sapiens, T-cell) [nM]","IC50 (Human T-cell; Homo sapiens, T-cell) [nM]",HTD [1] [µg/kg],ED50 (Sebaceous cells) [nM],IC50 (HaCaT cell line) [nM],IC50 (Human T-cells; [2]) [nM],EC50 (HL-60 cells) [nM],IC50 (Human T-cell; [3]) [nM],"ED50 (Sebaceous cells; listed as 1a,25-dihydroxy-16,22R,23-triene-cholecalciferol) [nM]","ED50 (Sebaceous cells; listed as 1a,25-dihydroxy-16,22S,23-triene-cholecalciferol) [nM]"
"C=C1/C(=C\C=C2/CCC[C@]3(C)[C@@H]([C@H](C)CCCC(C)(C)O)CC[C@@H]23)C[C@@H](O)C[C@@H]1O [1,25-Dihydroxy-cholecalciferol, reference compound]",55,0.8,10,0.5,50,–,–,–,–,–,–
"C=C1/C(=C\C=C2/CCC[C@]3(C)C([C@H](C)C=C=CC(C)(C)O)=CC[C@@H]23)C[C@@H](O)C[C@@H]1O [1,25-Dihydroxy-16,22R,23-triene-cholecalciferol]",–,–,–,2.5,–,0.01,0.05,0.22,0.55,1,–
"C=C1/C(=C\C=C2/CCC[C@]3(C)C([C@H](C)C=C=CC(C)(C)O)=CC[C@@H]23)C[C@@H](O)C[C@@H]1O [1,25-Dihydroxy-16,22S,23-triene-cholecalciferol]",–,–,–,50.0,–,40,3,4.8,6,–,10

# Source: EP0796843B1, “1,25-dihydroxy-16,22,23-trisdehydro-cholecalciferol derivatives” (F. HOFFMANN-LA ROCHE AG, priority 1996, dated 1997)
